Assay: Human HepG2 cell viability assay in 384 well format
Type: toxicity, cell-based
Design: dose 125 nL, time 70.5 hour; concentration not given beside the values
Settings: HepG2 cells, read-out: Inhibition

Compound	cytotoxicity at 70.5 h [%]
COc1ccc(CCNC(=O)NC2CCCC2)cc1OC	-12.5
COCCn1cc(C(=O)N2CCCC2c2cc(C)no2)ccc1=O (stereo unspecified)	-11.6
COc1ccc(C(CO)NC(=O)Nc2cccc(C#N)c2)cc1 (stereo unspecified)	-8.65
COc1cc(C)nc(N2CCN(C(=O)CCc3nccs3)CC2)n1	9.16
COc1cc(C)nc(N2CCN(C(=O)CCc3cscn3)CC2)n1	-6.3
N#Cc1cccc(NC(=O)N[C@H](CO)c2ccccc2)c1	-10.8
Cc1nccc(CNC(=O)NCCOc2ccc(F)c(F)c2)n1	-2.22
CC(c1ccc(Cl)cc1)N1CCN(CCS(C)(=O)=O)CC1 (stereo unspecified)	-6.43
N#Cc1cc(NC(=O)c2ccccc2)ccc1N1CCC(O)CC1	1.64
COc1ccccc1OCC(=O)NS(=O)(=O)c1ccccc1F	-0.501
CC(NC1CCN(CCS(C)(=O)=O)CC1)c1ccc(Cl)cc1 (stereo unspecified)	19.3
CC(=O)c1cccc(OCCCC(=O)N(C)Cc2cccc(O)c2)c1	-6.39
O=C(CN1CCCCC1Cn1cncn1)NC1CCN(C2CC2)CC1 (stereo unspecified)	-1.8
O=C(CN1CCCCC1Cn1cccn1)NC1CCN(C2CC2)CC1 (stereo unspecified)	-7.07
O=C(CN1CCCC1Cn1cccn1)NC1CCOCC1 (stereo unspecified)	-5.99
c1coc(-c2noc(CN3CCC(c4ccn[nH]4)CC3)n2)c1	-8.33
CCOC(C)c1nc(CN2CCNCC2)cs1 (stereo unspecified)	10.9
COCCn1cc(C(=O)N2CCCC2c2cccc(F)c2)ccc1=O (stereo unspecified)	-4.27
O=C(NCc1ccccc1CN1CCC(O)CC1)Nc1cccnc1	-4.5
Cc1nn(C)c(C)c1CNC1CCOc2ccccc21 (stereo unspecified)	-8.58
CCCc1noc(CCC(=O)NC(C)c2nnc3n2CCCCC3)n1 (stereo unspecified)	-9.55
O=C(C1CCCc2[nH]ncc21)N1CCCCCC1 (stereo unspecified)	-7.74
CCNC(=O)CN1CCCN(C(=O)C2CCCc3[nH]ncc32)CC1 (stereo unspecified)	-8.68

Compound	cytotoxicity at 70.5 h [%]
CCC(CC)c1cc(CNC(=O)N2CCCC(N(C)C)C2)on1 (stereo unspecified)	-9.56
CCOC(=O)NC(CNC(=O)c1ccccn1)CC(C)C (stereo unspecified)	-4.75
CN1CCN(Cc2ccccc2CNC(=O)c2ccc(Br)cc2)CC1	-7.15
CCN(CC(=O)NC)S(=O)(=O)N1CCCCCC1	-10.4
Cc1cc(S(=O)(=O)Nc2cccc(-n3cccc3)c2)sc1C(=O)O	-13
O=C(NC1CCS(=O)(=O)C1)c1sccc1-c1ccc(F)cc1 (stereo unspecified)	-7.53
COc1c(CNC2CCCc3ccccc32)c(C)nn1C (stereo unspecified)	-8
O=C(NCC1CCS(=O)(=O)C1)c1sccc1-c1ccc(F)cc1 (stereo unspecified)	8.07
COc1ccnc(N2CCN(C(=O)c3csc(C4CC4)n3)CC2)n1	-6.71
O=C(NCC1CC1)Nc1cccc(N2CCN(CC3CC3)CC2)c1	-0.269
COCc1cccc(NC(C)C(=O)N(C)Cc2ccccc2)c1 (stereo unspecified)	10.7
Cc1cnn(CC2CN(CCS(=O)(=O)c3ccccc3)CCO2)c1 (stereo unspecified)	-9.7
Cc1cn(CC(=O)NC2CCN(S(C)(=O)=O)CC2)c2ccccc12	-4.04
Cc1cnn(CC2CN(CCN3CCCC3=O)CCO2)c1 (stereo unspecified)	-11.5
Cc1cnc(NC(=O)N2CCCC2)s1	-12
COc1ccc(F)cc1C(C)NC(=O)c1nnc(C)s1 (stereo unspecified)	-5.29
CC(O)CC(C)(C)CNC(=O)NCc1cccc(-n2ccnc2)c1 (stereo unspecified)	-7.65
O=C(C1CCCc2[nH]ncc21)N1CCCC1 (stereo unspecified)	-4.89
CCN(CC(=O)NC(C)C)S(=O)(=O)N1CCC(C)C1 (stereo unspecified)	-6.99
CC(=O)N1CCN(Cc2nnc(C(C)(C)C)o2)CC1	-8.04
CNC(=O)CS(=O)(=O)Cc1coc(-c2ccc(OC)cc2)n1	-12.7
CNC(=O)CS(=O)(=O)Cc1coc(-c2ccc(F)cc2)n1	-9.1
CC(C)(C)c1nc(CN2CCC(c3nc4cc(Cl)ccc4o3)CC2)no1	15.4

Compound	cytotoxicity at 70.5 h [%]
CCNC(=O)N1CCCCC1CCNS(C)(=O)=O (stereo unspecified)	-10.5
CN(C)C1CCN(C(=O)NCc2ccccc2Cn2cncn2)CC1	-11.6
CN(C)C1CCN(C(=O)NCc2ccc(Cn3cncn3)cc2)CC1	14.8
CCOC(CC)C(=O)NCc1ccnc(Oc2ccc(F)cc2)c1 (stereo unspecified)	-7.99
Cc1ccc(NC(=O)NC(C)C(=O)N2CCS(=O)(=O)CC2)cc1 (stereo unspecified)	-7.48
O=C(NCCNCC1CNc2ccnn2C1)c1ccc(F)cc1 (stereo unspecified)	-6.67
CCOc1ccc(C(=O)NS(=O)(=O)c2cncc(Br)c2)cc1OC	18.9
CC(NC(=O)COc1nc(C(C)(C)C)no1)c1ccco1 (stereo unspecified)	-6.24
CN(Cc1ccc(OC(F)F)cc1)C(=O)CS(=O)(=O)c1ccc(Cl)cc1	-9.26
CC(C)NC(=O)COc1nc(C(C)(C)C)no1	-6.41
Cc1ccc(CC(=O)NC(C)C(=O)N2CCS(=O)(=O)CC2)cc1 (stereo unspecified)	-2.68
Cn1cccc1C(=O)N1CCC2(CC1)CN(c1ccsc1)C(=O)CO2	-15.9
CC(=O)NCC(=O)N1C[C@@H](C)[C@@]2(CCN(c3ccsc3)C2=O)C1	-10.5
Cc1nc(NCC2CC2)nc2c1COCC21CCN(C(=O)NC(C)C)C1 (stereo unspecified)	-5.59
O=C(c1ccccn1)N1CCC2(CC1)CN(c1cncnc1)C(=O)CO2	-12.2
O=C(c1cscn1)N1CCC[C@]2(C[C@@H](OCC3CC3)CO2)C1	-11
C[C@H]1C[C@H]2CN(C(=O)CCc3ccccc3)CC[C@H]2O1	-11.5
COCCC1COC2(CCN(C(=O)Cc3ccccc3)CC2)C1 (stereo unspecified)	-13.5
O=C(CC1CC1)N1CCC2(CC1)CN(c1ncc(F)cn1)CCO2	-9.05
COCC1CN(C(=O)CC2Cc3ccccc3C2)Cc2c1cnn2C (stereo unspecified)	-5.66
CCc1ncnc2c1CCN(C(=O)c1cccn1C)CC2	20.2
O=C(Cc1ccccc1)N1CCC2(CC1)CN(c1ncccn1)CCO2	-9.68
c1ccc(COC[C@@H]2CC[C@H]3[C@H](CCN3c3ncccn3)O2)nc1	-9.8

Compound	cytotoxicity at 70.5 h [%]
CC(C)N(C)[C@@H]1CCN(C(=O)c2ccc[nH]2)[C@H]1Cc1cnn(C)c1	-8.9
Cn1cc(C[C@H]2[C@@H](OCC3CC3)CCN2C(=O)c2ccc[nH]2)cn1	21.2
COCCO[C@@H]1CCN(C(=O)c2ccc[nH]2)[C@H]1Cc1cnn(C)c1	-7.64
CCOCC1CN(C(=O)Cc2ccccn2)Cc2c1cnn2CC (stereo unspecified)	23.4
CC(C)N1CCC2(CC1)CC(c1cccnc1)C(=O)N2 (stereo unspecified)	-10.2
O=C(c1cscn1)N1C[C@H]2CN(Cc3nccs3)C[C@H]2C1	-1.36
CCOCc1ncn2c1CN(C(=O)c1ccoc1)CC2	-12.2
O=C(c1ccc[nH]1)N1CCCn2cnc(COCC3CC3)c2C1	-9.86
O=C(c1cccs1)N1CCc2ncnc(C3CCOC3)c2CC1 (stereo unspecified)	-14.6
O=C(c1cccs1)N1CCCn2cnc(COCC3CC3)c2C1	-12.8
Cc1occc1C(=O)N1CCc2ncnc(C3CCOC3)c2CC1 (stereo unspecified)	-12.9
O=C(c1ccco1)N1CCCn2cnc(COCC3CC3)c2C1	-7.39
O=C(c1cscn1)N1CCC2(CCN(Cc3nccs3)CC2)CC1	-14.7
CCS(=O)(=O)N1CC[C@H]2OCC[C@@]2(C(=O)NC)C1	-9.74
CNC(=O)[C@@]12CCO[C@@H]1CCN(S(=O)(=O)c1ccccc1F)C2	-13.3
COCCC1COC2(CCN(C(=O)c3ccncc3)CC2)C1 (stereo unspecified)	30.8
CCO[C@@H]1CCN(C(=O)c2ccc[nH]2)[C@@H]1Cc1cccnc1	-6.51
Cc1nc(COC[C@H]2CC[C@H]3[C@H](CCN3c3ncccn3)O2)cs1	-6.71
Cn1nc(Cn2ccnc2)c2c1CN(C(=O)c1ccoc1)C2	-9.72
O=C(c1ccc(F)cc1)N1CC[C@H]2[C@H]1CCN2CC1CCOCC1	-6.57
Cc1cccc(C(=O)N2CCc3ncnc(C4CCOC4)c3CC2)n1 (stereo unspecified)	-0.465
Cn1cc(N2C(=O)CC[C@@H]3[C@H]2CCN3C(=O)c2cscn2)cn1	-10.2
Cc1cccc(N2CC3(CCN(Cc4nccn4C)C3)CC2=O)c1 (stereo unspecified)	-8.56

Compound	cytotoxicity at 70.5 h [%]
Cn1ccnc1CN1CCC2(CC(=O)N(c3ccc4c(c3)OCO4)C2)C1 (stereo unspecified)	-17.1
Cc1oncc1C(=O)N1CC[C@H]2[C@@H]1CCC(=O)N2c1cccnc1	-14.4
O=C(c1cscn1)N1CCC2(CN(Cc3nccs3)C2)C1	-11.9
Cn1cc(CN2CC[C@@H]3[C@@H]2CCN3C(=O)Cc2cccc(F)c2)cn1	-4.59
O=C(c1cccnc1)N1CCc2ncnc(N3CCOCC3)c2CC1	-7.42
Cn1cc(CN2CC[C@@H]3[C@@H]2CCN3C(=O)c2cccc(F)c2)cn1	-14.7
CN(C)CCN1C2(CCN(Cc3nccs3)C2)c2ccccc2S1(=O)=O (stereo unspecified)	24.4
c1ccc(OC2COC3(CCN(CC4CC4)CC3)C2)nc1 (stereo unspecified)	2.65
Cn1ncc2c1CN(C(=O)Cc1ccccn1)CC2COCC1CC1 (stereo unspecified)	-10.6
CCn1ncc2c1CN(C(=O)Cc1ccccn1)CC2COC (stereo unspecified)	-3.07
Cc1cnc(N2CC[C@@H]3O[C@H](COCc4ccccn4)CC[C@@H]32)nc1	-1.58
c1ccc(COC[C@H]2CC[C@H]3[C@H](CCN3c3ncccn3)O2)nc1	-3.8
c1ccc(O[C@H]2CO[C@@]3(CCN(Cc4ccc5c(c4)OCO5)C3)C2)nc1	0.478
O=C(NCc1cccnc1)[C@H]1CC[C@@H]2[C@@H](CCN2c2ncccn2)O1	-6.01
O=C(c1ccco1)N1CC[C@@H](N2CCOCC2)[C@@H]1Cc1ccncc1	-4.82
Cc1ccc(N2CCO[C@H]3CN(Cc4ccoc4)C[C@H]32)nn1	6.75
CN(Cc1cccnc1)C1CC2(CCN(Cc3ccccn3)CC2)C1	-11.6
CN(Cc1ccco1)[C@@H]1CN(Cc2cccnc2)[C@@H]2CCCO[C@H]12	-12.5
c1ccc(CN2CCC3(CC2)CCN(Cc2cccnc2)C3)nc1	-9.45
